What all share (format): biochemical
The target of test [1] is Jak2 (a.a. 828-1132) (Homo sapiens (Human), UniProt O60674). The test is described as follows: In vitro JAK kinase assay (HTRF, phosphorylation of a biotinylated peptide), JAK2. To be noted: measured at 1 mM ATP. In a few lines:
(§1)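 N-terminal His-tagged catalytic domains, baculovirus-expressed in insect cells, phosphorylated a biotinylated peptide for 1 hr at room temperature. EDTA stop was followed by SA-APC and Eu-Py20 antibody for 40 minutes, with phosphopeptide read by HTRF.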
(In TR-FRET formats the signal depends on donor and acceptor labels being close together.)

The target of test [2] is human JAK1 (a.a. 837-1142). The test is described as follows: In vitro JAK kinase assay (HTRF, phosphorylation of a biotinylated peptide), JAK1. As to conditions: ratio of JAK2 IC50 to JAK1 IC50, measured at 1 mM ATP. In a few lines: as §1
Test [3] has as its target human JAK1 (a.a. 837-1142) (Homo sapiens, UniProt P23458). Described as above. To be noted: measured at 1 mM ATP. In a few lines:
as §1

Chain of Jak2 (a.a. 828-1132) (O60674 828-1132): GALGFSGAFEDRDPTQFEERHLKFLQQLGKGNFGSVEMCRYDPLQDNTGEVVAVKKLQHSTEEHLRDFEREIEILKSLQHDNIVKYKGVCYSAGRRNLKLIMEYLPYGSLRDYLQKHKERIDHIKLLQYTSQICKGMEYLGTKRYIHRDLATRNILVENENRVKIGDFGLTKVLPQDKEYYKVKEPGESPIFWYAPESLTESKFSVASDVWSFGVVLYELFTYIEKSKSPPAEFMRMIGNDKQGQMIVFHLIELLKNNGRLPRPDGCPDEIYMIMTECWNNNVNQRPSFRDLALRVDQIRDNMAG

For orientation: IC50 means the concentration that inhibits the measured activity by half. Lower therefore signals greater potency in that assay. As to `CC1(COC(=O)N2CCC(N3CC(CC#N)(n4cc(-c5ncnc6[nH]ccc56)cn4)C3)CC2)CC1` [Example 392, (1-methylcyclopropyl)methyl 4-{3-(cyanomethyl)-3-[4-(7H-pyrrolo[2,3-d]pyrimidin-4-yl)-1H-pyrazol-1-yl]azetidin-1-yl}piperidine-1-carboxylate], the IC50 in test [1] fell in the range of 10 to 50 nM; in test [3], 5 to 20 nM. The “IC50 Ratio JAK2/JAK1” value in test [2] worked out at 5.6.
Taken in the same sequence, the figures for `N#CCC1(n2cc(-c3ncnc4[nH]ccc34)cn2)CN(C2CCN(C(=O)OCc3ccc(F)cc3F)CC2)C1` [Example 393, 2,4-difluorobenzyl 4-{3-(cyanomethyl)-3-[4-(7H-pyrrolo[2,3-d]pyrimidin-4-yl)-1H-pyrazol-1-yl]azetidin-1-yl}piperidine-1-carboxylate] were 10 to 50 nM, not above 5 nM and 7.1.
With `N#CCC1(n2cc(-c3ncnc4[nH]ccc34)cn2)CN(C2CCN(C(=O)OCc3ccc(F)c(F)c3)CC2)C1` [Example 394, 3,4-difluorobenzyl 4-{3-(cyanomethyl)-3-[4-(7H-pyrrolo[2,3-d]pyrimidin-4-yl)-1H-pyrazol-1-yl]azetidin-1-yl}piperidine-1-carboxylate], the IC50 in test [1] lay within 50 to 100 nM; in test [3], 5 to 20 nM. For the same compound, the “IC50 Ratio JAK2/JAK1” value in test [2] worked out at 11.1.
Taken in the same sequence, the figures for `N#CCC1(n2cc(-c3ncnc4[nH]ccc34)cn2)CN(C2CCN(C(=O)OCc3cc(F)cc(F)c3)CC2)C1` [Example 395, 3,5-difluorobenzyl 4-{3-(cyanomethyl)-3-[4-(7H-pyrrolo[2,3-d]pyrimidin-4-yl)-1H-pyrazol-1-yl]azetidin-1-yl}piperidine-1-carboxylate] were 50 to 100 nM, not above 5 nM and 24.4.
